According to ChEMBL document CHEMBL1128009, “Stereoselectivity of the positive inotropic effects of newer diazinone-cardiotonics” (Bioorg Med Chem Lett, 1994):

Tested on: not listed separately; call rule not given here
Assay: Calcium sensitizing activity
Assay type: functional

Compound | EC50 [µM]
COc1ccc(C(=O)N2CCCc3cc(C4=NNC(=O)SC4C)ccc32)cc1OC (single isomer, unassigned; (+)) | 1.7
CC1CC(=O)NN=C1c1ccc2[nH]c(-c3cc[nH]n3)nc2c1 (single isomer, unassigned; (+)) [MERIBENDAN] | 470
COc1ccc(-c2nc3cc(C4=NNC(=O)CC4C)ccc3[nH]2)cc1 (single isomer, unassigned; (+)) [PIMOBENDAN] | 152
COc1ccc(C(=O)N2CCCc3cc(C4=NNC(=O)SC4C)ccc32)cc1OC (single isomer, unassigned; (-)) | > 100
CC1CC(=O)NN=C1c1ccc2[nH]c(-c3cc[nH]n3)nc2c1 (single isomer, unassigned; (-)) [MERIBENDAN] | 190
COc1ccc(-c2nc3cc(C4=NNC(=O)CC4C)ccc3[nH]2)cc1 (stereo in doubt) [PIMOBENDAN] | 100
C[C@@H]1CC(=O)NN=C1c1ccc(NN=C(C#N)C#N)cc1 [LEVOSIMENDAN] | > 100
CC1CC(=O)NN=C1c1ccc(NN=C(C#N)C#N)cc1 (stereo unspecified) [SIMENDAN] | > 100

Tested on: not listed separately
Assay: Calcium sensitizing activity (Active)
Assay type: functional

Compound | EC50
CC1CC(=O)NN=C1c1cc2ccc(OCCN3CCCCC3)cc2s1 (stereo in doubt; (+)) | Active

Tested on: not listed separately
Assay: Calcium sensitizing activity (No Effect)
Assay type: functional

Compound | EC50
CC1CC(=O)NN=C1c1cc2ccc(OCCN3CCCCC3)cc2s1 (stereo in doubt; (-)) | Not Active

Molecular target: Phosphodiesterase 3 (Homo sapiens, UniProt Q14432+Q13370)
Assay: Inhibition of phosphodiesterase 3
Assay type: protein assay

Compound | IC50 [µM]
CC1CC(=O)NN=C1c1ccc2[nH]c(-c3cc[nH]n3)nc2c1 (single isomer, unassigned; (+)) [MERIBENDAN] | 1.6
CC1CC(=O)NN=C1c1ccc2[nH]c(-c3cc[nH]n3)nc2c1 (single isomer, unassigned; (-)) [MERIBENDAN] | 0.04
CC1CC(=O)NN=C1c1cc2ccc(OCCN3CCCCC3)cc2s1 (stereo in doubt; (+)) | 14.8
CC1CC(=O)NN=C1c1cc2ccc(OCCN3CCCCC3)cc2s1 (stereo in doubt; (-)) | 0.08
C[C@@H]1CC(=O)NN=C1c1ccc(NN=C(C#N)C#N)cc1 [LEVOSIMENDAN] | 0.008
CC1CC(=O)NN=C1c1ccc(NN=C(C#N)C#N)cc1 (stereo unspecified) [SIMENDAN] | 1.5
